Experiments:
[1] = xn = mol fraction of the nth substance listed; conditions: 100 kPa, Liquid; for speed of sound: Frequency=3 MHz, Sing-around technique in a fixed-path interferometer; for mass density: Vibrating tube method
[2] = refractive index (Na D-line) (dimensionless); xn = mol fraction of the nth substance listed; conditions: 100 kPa, Liquid, Standard Abbe refractometry

O=Cc1ccccc1 [benzaldehyde] + CCOC(=O)OCC
Conditions | mass density, [1] [kg/m3] | refractive index, [2] | speed of sound, [1] [m/s]
298.15 K, x2 = 0 | 1041 | 1.541 | 1457.3
298.15 K, x2 = 0.0933 | 1035 | 1.5244 | 1430.7
298.15 K, x2 = 0.1658 | 1030.2 | 1.5118 | 1409
298.15 K, x2 = 0.267 | 1023.4 | 1.4947 | 1379.1
298.15 K, x2 = 0.36 | 1016.9 | 1.4794 | 1352.5
298.15 K, x2 = 0.4554 | 1010.4 | 1.4638 | 1325.4
298.15 K, x2 = 0.5605 | 1003 | 1.4472 | 1296.3
298.15 K, x2 = 0.6547 | 996.2 | 1.4325 | 1269.8
298.15 K, x2 = 0.7716 | 987.4 | 1.415 | 1238.2
298.15 K, x2 = 0.8473 | 981.4 | 1.4039 | 1217
303.15 K, x2 = 0 | 1036.5 | 1.5383 | 1438.9
303.15 K, x2 = 0.0933 | 1030.6 | 1.522 | 1412.1
303.15 K, x2 = 0.1658 | 1025.7 | 1.5094 | 1389.9
303.15 K, x2 = 0.267 | 1018.7 | 1.4924 | 1359.9
303.15 K, x2 = 0.36 | 1012.2 | 1.4771 | 1333.1
303.15 K, x2 = 0.4554 | 1005.4 | 1.4616 | 1305.8
303.15 K, x2 = 0.5605 | 997.9 | 1.445 | 1276.5
303.15 K, x2 = 0.6547 | 991 | 1.4304 | 1249.9
303.15 K, x2 = 0.7716 | 982.1 | 1.4129 | 1218.1
303.15 K, x2 = 0.8473 | 976 | 1.4017 | 1196.8
308.15 K, x2 = 0 | 1032 | 1.5357 | 1420.6
308.15 K, x2 = 0.0933 | 1026.2 | 1.5195 | 1393.5
308.15 K, x2 = 0.1658 | 1021.2 | 1.5071 | 1371.1
308.15 K, x2 = 0.267 | 1014.1 | 1.4902 | 1340.8
308.15 K, x2 = 0.36 | 1007.4 | 1.475 | 1313.8
308.15 K, x2 = 0.4554 | 1000.6 | 1.4596 | 1286.3
308.15 K, x2 = 0.5605 | 992.9 | 1.443 | 1256.9
308.15 K, x2 = 0.6547 | 985.8 | 1.4283 | 1230.1
308.15 K, x2 = 0.7716 | 976.8 | 1.4108 | 1198.1
308.15 K, x2 = 0.8473 | 970.7 | 1.3995 | 1176.7
313.15 K, x2 = 0 | 1027.5 | 1.5332 | 1402.4
313.15 K, x2 = 0.0933 | 1021.8 | 1.5171 | 1375
313.15 K, x2 = 0.1658 | 1016.7 | 1.5048 | 1352.4
313.15 K, x2 = 0.267 | 1009.5 | 1.488 | 1321.8
313.15 K, x2 = 0.36 | 1002.7 | 1.4728 | 1294.6
313.15 K, x2 = 0.4554 | 995.6 | 1.4574 | 1267
313.15 K, x2 = 0.5605 | 987.9 | 1.4409 | 1237.4
313.15 K, x2 = 0.6547 | 980.7 | 1.4262 | 1210.4
313.15 K, x2 = 0.7716 | 971.6 | 1.4087 | 1178.3
313.15 K, x2 = 0.8473 | 965.4 | 1.3973 | 1156.8
318.15 K, x2 = 0 | 1023 | 1.5307 | 1384.4
318.15 K, x2 = 0.0933 | 1017.3 | 1.515 | 1356.6
318.15 K, x2 = 0.1658 | 1012.2 | 1.5028 | 1333.8
318.15 K, x2 = 0.267 | 1004.9 | 1.486 | 1303.3
318.15 K, x2 = 0.36 | 997.9 | 1.4708 | 1275.8
318.15 K, x2 = 0.4554 | 990.7 | 1.4555 | 1248
318.15 K, x2 = 0.5605 | 982.8 | 1.439 | 1218.3
318.15 K, x2 = 0.6547 | 975.6 | 1.4242 | 1191.5
318.15 K, x2 = 0.7716 | 966.4 | 1.4067 | 1159
318.15 K, x2 = 0.8473 | 960.1 | 1.3952 | 1137.3
323.15 K, x2 = 0 | 1018.4 | 1.5282 | 1366.4
323.15 K, x2 = 0.0933 | 1012.8 | 1.5124 | 1339.3
323.15 K, x2 = 0.1658 | 1007.7 | 1.5003 | 1316.3
323.15 K, x2 = 0.267 | 1000.2 | 1.4836 | 1285.3
323.15 K, x2 = 0.36 | 993.1 | 1.4685 | 1257.7
323.15 K, x2 = 0.4554 | 985.8 | 1.4532 | 1229.8
323.15 K, x2 = 0.5605 | 977.7 | 1.4368 | 1199.9
323.15 K, x2 = 0.6547 | 970.4 | 1.4221 | 1173.1
323.15 K, x2 = 0.7716 | 961.1 | 1.4046 | 1140.6
323.15 K, x2 = 0.8473 | 954.8 | 1.3931 | 1118.8

N#Cc1ccccc1 [benzonitrile] + CCOC(=O)OCC
Conditions | mass density, [1] [kg/m3] | refractive index, [2] | speed of sound, [1] [m/s]
298.15 K, x2 = 0 | 1000.6 | 1.526 | 1415.6
298.15 K, x2 = 0.0854 | 998.8 | 1.5123 | 1396.3
298.15 K, x2 = 0.1886 | 996.7 | 1.4963 | 1373.1
298.15 K, x2 = 0.2618 | 994.9 | 1.4851 | 1356.1
298.15 K, x2 = 0.3642 | 992.1 | 1.4698 | 1331.9
298.15 K, x2 = 0.462 | 989.3 | 1.4556 | 1308.6
298.15 K, x2 = 0.5563 | 986.3 | 1.442 | 1286.1
298.15 K, x2 = 0.6599 | 982.7 | 1.4275 | 1261
298.15 K, x2 = 0.7732 | 978.5 | 1.412 | 1233.3
298.15 K, x2 = 0.8703 | 974.6 | 1.3991 | 1209.4
303.15 K, x2 = 0 | 995.9 | 1.5235 | 1398.1
303.15 K, x2 = 0.0854 | 994 | 1.5098 | 1378.5
303.15 K, x2 = 0.1886 | 991.9 | 1.494 | 1354.8
303.15 K, x2 = 0.2618 | 990 | 1.4828 | 1337.7
303.15 K, x2 = 0.3642 | 987.2 | 1.4676 | 1313.1
303.15 K, x2 = 0.462 | 984.3 | 1.4533 | 1289.5
303.15 K, x2 = 0.5563 | 981.2 | 1.4398 | 1266.7
303.15 K, x2 = 0.6599 | 977.5 | 1.4253 | 1241.3
303.15 K, x2 = 0.7732 | 973.2 | 1.4098 | 1213.3
303.15 K, x2 = 0.8703 | 969.2 | 1.3969 | 1189.2
308.15 K, x2 = 0 | 991.4 | 1.5209 | 1380.8
308.15 K, x2 = 0.0854 | 989.5 | 1.5074 | 1360.8
308.15 K, x2 = 0.1886 | 987.2 | 1.4916 | 1336.7
308.15 K, x2 = 0.2618 | 985.3 | 1.4806 | 1319.3
308.15 K, x2 = 0.3642 | 982.3 | 1.4653 | 1294.4
308.15 K, x2 = 0.462 | 979.3 | 1.4511 | 1270.6
308.15 K, x2 = 0.5563 | 976.1 | 1.4376 | 1247.4
308.15 K, x2 = 0.6599 | 972.3 | 1.4231 | 1221.8
308.15 K, x2 = 0.7732 | 967.8 | 1.4076 | 1193.5
308.15 K, x2 = 0.8703 | 963.7 | 1.3946 | 1169.1
313.15 K, x2 = 0 | 986.9 | 1.5184 | 1363.6
313.15 K, x2 = 0.0854 | 984.9 | 1.505 | 1343.2
313.15 K, x2 = 0.1886 | 982.5 | 1.4893 | 1318.7
313.15 K, x2 = 0.2618 | 980.5 | 1.4783 | 1301
313.15 K, x2 = 0.3642 | 977.4 | 1.4631 | 1275.9
313.15 K, x2 = 0.462 | 974.2 | 1.4489 | 1251.8
313.15 K, x2 = 0.5563 | 970.9 | 1.4353 | 1228.3
313.15 K, x2 = 0.6599 | 967 | 1.4208 | 1202.4
313.15 K, x2 = 0.7732 | 962.4 | 1.4054 | 1173.8
313.15 K, x2 = 0.8703 | 958.2 | 1.3924 | 1149.2
318.15 K, x2 = 0 | 982.5 | 1.5158 | 1346.5
318.15 K, x2 = 0.0854 | 980.4 | 1.5025 | 1325.7
318.15 K, x2 = 0.1886 | 977.9 | 1.487 | 1300.8
318.15 K, x2 = 0.2618 | 975.8 | 1.4761 | 1282.9
318.15 K, x2 = 0.3642 | 972.5 | 1.4609 | 1257.4
318.15 K, x2 = 0.462 | 969.2 | 1.4466 | 1233
318.15 K, x2 = 0.5563 | 965.8 | 1.4332 | 1209.3
318.15 K, x2 = 0.6599 | 961.7 | 1.4187 | 1183.2
318.15 K, x2 = 0.7732 | 956.9 | 1.4032 | 1154.3
318.15 K, x2 = 0.8703 | 952.7 | 1.3902 | 1129.5
323.15 K, x2 = 0 | 977.9 | 1.5133 | 1329.5
323.15 K, x2 = 0.0854 | 975.8 | 1.5002 | 1308.3
323.15 K, x2 = 0.1886 | 973.2 | 1.4848 | 1282.9
323.15 K, x2 = 0.2618 | 971 | 1.4739 | 1264.9
323.15 K, x2 = 0.3642 | 967.6 | 1.4587 | 1239.3
323.15 K, x2 = 0.462 | 964.2 | 1.4445 | 1214.5
323.15 K, x2 = 0.5563 | 960.6 | 1.431 | 1190.6
323.15 K, x2 = 0.6599 | 956.5 | 1.4165 | 1164.1
323.15 K, x2 = 0.7732 | 951.5 | 1.401 | 1135
323.15 K, x2 = 0.8703 | 947.1 | 1.3881 | 1110

— the NIST ThermoML archive (doi:10.1016/j.jct.2016.08.001)
